In US20120251551A1, “Substituted (Heteroarylmethyl)thiohydantoins” (BAYER PHARMA AKTIENGESELLSCHAFT, priority 2009, published 2012):
Residue numbers refer to the chain shown, from its start.

How the values were obtained:
[1] = target: T1, human androgen receptor E709Y mutant (Homo sapiens, UniProt P10275, E710Y); assay: Cell-based transactivation assay for human androgen receptor mutant E709Y
T1 construct: expressed in transfected cells; host or cells: PC-3 cells, transient transfection with a pSG5-derived plasmid
T1 sequence (P10275 1-920 E710Y): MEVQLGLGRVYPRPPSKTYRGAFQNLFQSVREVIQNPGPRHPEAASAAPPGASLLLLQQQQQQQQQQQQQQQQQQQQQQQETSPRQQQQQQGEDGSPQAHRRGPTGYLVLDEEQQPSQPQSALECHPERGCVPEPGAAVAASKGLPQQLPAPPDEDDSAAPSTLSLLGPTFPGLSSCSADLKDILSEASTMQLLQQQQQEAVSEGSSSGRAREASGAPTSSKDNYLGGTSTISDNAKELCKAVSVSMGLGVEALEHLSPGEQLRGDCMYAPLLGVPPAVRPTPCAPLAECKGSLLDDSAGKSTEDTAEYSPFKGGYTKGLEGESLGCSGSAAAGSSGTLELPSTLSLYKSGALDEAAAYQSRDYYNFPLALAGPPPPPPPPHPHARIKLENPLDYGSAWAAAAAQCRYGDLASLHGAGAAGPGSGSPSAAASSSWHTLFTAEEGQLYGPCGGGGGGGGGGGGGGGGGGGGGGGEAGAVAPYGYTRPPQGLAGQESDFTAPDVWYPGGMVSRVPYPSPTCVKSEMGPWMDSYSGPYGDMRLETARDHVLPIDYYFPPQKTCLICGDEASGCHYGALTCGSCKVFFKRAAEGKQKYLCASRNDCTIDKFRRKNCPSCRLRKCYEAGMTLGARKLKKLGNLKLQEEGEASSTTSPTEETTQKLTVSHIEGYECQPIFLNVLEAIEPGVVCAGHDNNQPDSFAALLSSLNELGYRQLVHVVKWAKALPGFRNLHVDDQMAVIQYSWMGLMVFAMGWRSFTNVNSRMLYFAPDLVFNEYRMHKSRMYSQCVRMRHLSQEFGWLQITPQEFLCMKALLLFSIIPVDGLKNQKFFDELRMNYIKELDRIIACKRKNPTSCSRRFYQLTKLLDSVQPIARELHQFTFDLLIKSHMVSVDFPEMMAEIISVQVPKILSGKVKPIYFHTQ
Protocol: Cell-Based Transactivation Assay for Human Androgen Receptor Mutant E709Y
PC-3 cells (Kaighn et al., Invest. Urol. 17:16-23, 1979) were grown in 5% charcoal-stripped medium and seeded at a concentration of 10000 cells per well in a 96-well plate. They were transiently transfected with a pSG5-derived plasmid (#216201 from Stratagene, La Jolla, Calif., USA) coding for the human androgen receptor E709Y mutant (Georget et al., Molecular Endocrinology, 20(4): 724-734, 2006) and an MMTV-Luciferase reporter plasmid based on pGL4.14 14 (#E6691, Promega Corporation, Madison, Wis., USA). The compound to be tested was added at a concentration range varying from 1×10^−9 to 1×10^−6 M together with 1×10^−10 R1881. After 24 h incubation at 37° C. in a 5% CO2 atmosphere, 100 μl of Steady Glo Lysis and Detection reagent (Steady Glo Luciferase assay system E2550 from Promega Corporation. Madison, Wis., USA) were added. Antagonistic activity was determined by measuring Luciferase activity in a Victor 3 Luminometer (PerkinElmer, Waltham, Mass., USA) using the Steady Glo Luciferase Assay (E2550, Promega). IC50 values were calculated for anti-androgenic activity.

[2] = target: T2, wild-type human androgen receptor (Homo sapiens, UniProt P10275); assay: Cell-based transactivation assay for wild-type human androgen receptor (PC-3 cells, MMTV-luciferase reporter)
T2 construct: expressed in transfected cells
T2 sequence (P10275 1-920): T1 sequence (P10275 1-920 E710Y) with Y710E
Protocol: Cell-Based Transactivation Assay for Wild-Type Human Androgen Receptor
PC-3 cells (Kaighn et al., Invest. Urol. 17:16-23, 1979) stably transfected with the human androgen receptor (Swiss-Prot Acc. No. P10275, Entry Version 159, Sequence Version 2) and a reporter plasmid based on pGL4.14 (#E6691, Promega Corporation, Madison, Wis., USA) containing the MMTV promoter (Cato et al., EMBO J. 6:363-8, 1987) were used. They were grown in 5% charcoal-stripped medium and seeded at a concentration of 1000 cells per well in a 384-well plate. For determination of antagonistic activity, the plate additionally contained the compound to be tested at a concentration range varying from 5.12×10^−12 to 1×10^−5 M. The assay was performed in presence of 1×10^−10 R1881 (also known as methyltrienolone). After overnight incubation at 37° C. in a 5% CO2 atmosphere, 15 μl of Steady Glo Lysis and Detection reagent (Steady Glo Luciferase assay system E2550 from Promega Corporation. Madison, Wis., USA) were added. IC50 was calculated for anti-androgenic activity as well as percentage inhibition in presence of 2 μM compound in comparison to non-stimulated luciferase signal. Agonistic activity was determined using the same concentration range of compound in the absence of R1881 by measuring Luciferase activity as above. EC50 was calculated for androgenic activity. Assay/read plates were used (Polystyrol; 384, NV-white cell culture plates; Perkin Elmer).

[3] = Determination of metabolic stability in vitro (calculation of hepatic in vivo blood clearance); assay type: in vitro ADME; conditions: pH 7.4, human liver microsomes, calculated from half-life, read-out: calculated hepatic in vivo blood clearance (CL) (converted)
Protocol: Determination of Metabolic Stability In Vitro (Including Calculation of Hepatic In Vivo Blood Clearance (CL) and of Maximal Oral Bioavailability (Fmax))
The metabolic stability of test compounds in vitro was determined by incubating them at 1 μM with a suspension of human liver microsomes in 100 mM phosphate buffer, pH7.4 (NaH2PO4×H2O+Na2HPO4×2H2O) at a protein concentration of 0.5 mg/ml and at 37° C. The reaction was activated by adding a co-factor mix containing 1.2 mg NADP, 3 IU glucose-6-phosphate dehydrogenase, 14.6 mg glucose-6-phosphate and 4.9 mg MgCl2 in phosphate buffer, pH 7.4. Organic solvent in the incubations was limited to <0.2% dimethylsulfoxide (DMSO) and <1% methanol. During incubation, the microsomal suspensions were continuously shaken and aliquots were taken at 2, 8, 16, 30, 45 and 60 min, to which equal volumes of cold methanol were immediately added. Samples were freezed at −20° C. over night, subsequently centrifuged for 15 minutes at 3000 rpm and the supernatant was analyzed with an Agilent 1200 HPLC-system with LCMS/MS detection.
The half-life of a test compound was determined from the concentration-time plot. From the half-life the intrinsic clearances were calculated. Together with the additional parameters liver blood flow, specific liver weight and microsomal protein content the hepatic in vivo blood clearance (CL) and the maximal oral bioavailability (Fmax) were calculated for the different species. The following parameter values were used: Liver blood flow—1.3 l/h/kg human; specific liver weight—21 g/kg human; microsomal protein content—40 mg/g.
With the described assay only phase-I metabolism of microsomes is reflected, e.g. typically oxidoreductive reactions by cytochrome P450 enzymes and flavin mono-oxygenases (FMO) and hydrolytic reactions by esterases (esters and amides).

Structure (SMILES): CN1C(=S)N(c2ccc(C#N)c(C(F)(F)F)c2)C(=O)C1(C)C [2-(Trifluoromethyl)-4-(3,4,4-trimethyl-5-oxo-2-thioxoimidazolidin-1-yl)benzonitrile, reference compound]
- IC50 [1]: 117 nM
- EC50 [2]: 7.97 nM

Structure (SMILES): CC1(C)C(=O)N(c2ccc(C#N)c(C(F)(F)F)c2)C(=S)N1CCCCO [4-[3-(4-Hydroxybutyl)-4,4-dimethyl-5-oxo-2-thioxoimidazolidin-1-yl]-2-(trifluoromethyl)benzonitrile, reference compound]
- IC50 [1]: > 1000 nM
- EC50 [2]: 8.13 nM

Structure (SMILES): CC1(C)C(=O)N(c2ccc(C#N)c(C(F)(F)F)c2)C(=S)N1Cc1ccc(F)cc1 [Comparative data^4]
- IC50 [1]: > 1000 nM
- EC50 [2]: 1.79 nM

Structure (SMILES): CC1(C)C(=O)N(c2ccc(C#N)c(C(F)(F)F)c2)C(=S)N1Cc1ccccc1 [Comparative data^4]
- IC50 [1]: 587 nM
- EC50 [2]: 46.4 nM

Structure (SMILES): CC1(C)C(=O)N(c2ccc(C#N)c(C(F)(F)F)c2)C(=S)N1Cc1ccc(-n2ccnc2)nc1 [Example 1, 4-(3-{[6-(1H-Imidazol-1-yl)pyridin-3-yl]methyl}-4,4-dimethyl-5-oxo-2-thioxoimidazolidin-1-yl)-2-(trifluoromethyl)benzonitrile]
- CLhep predicted at 1 µM [3]: 4.33 mL/min/kg
- IC50 [1]: 7.21 nM
- EC50 [2]: > 10000 nM

Structure (SMILES): CC1(C)C(=O)N(c2ccc(C#N)c(C(F)(F)F)c2)C(=S)N1Cc1ccc(C(F)(F)F)nc1 [Example 2, 4-(4,4-Dimethyl-5-oxo-2-thioxo-3-{[6-(trifluoromethyl)pyridin-3-yl]methyl}imidazolidin-1-yl)-2-(trifluoromethyl)benzonitrile]
- CLhep predicted at 1 µM [3]: 6.5 mL/min/kg
- IC50 [1]: 14.2 nM
- EC50 [2]: 5430 nM

Structure (SMILES): CC1(C)C(=O)N(c2ccc(C#N)c(C(F)(F)F)c2)C(=S)N1Cc1ccc(N2CCOCC2)nc1 [Example 4, 4-(4,4-Dimethyl-3-{[6-(morpholin-4-yl)pyridin-3-yl]methyl}-5-oxo-2-thioxoimidazolidin-1-yl)-2-(trifluoromethyl)benzonitrile]
- IC50 [1]: 77.2 nM
- EC50 [2]: > 10000 nM

Structure (SMILES): CC1(C)C(=O)N(c2ccc(C#N)c(C(F)(F)F)c2)C(=S)N1Cc1ccc(N2CCS(=N)(=O)CC2)nc1 [Example 9, 4-(3-{[6-(1-Imino-1-oxido-1λ^6-thiomorpholin-4-yl)pyridin-3-yl]methyl}-4,4-dimethyl-5-oxo-2-thioxoimidazolidin-1-yl)-2-(trifluoromethyl)benzonitrile]
- CLhep predicted at 1 µM [3]: 8 mL/min/kg
- IC50 [1]: 5.65 nM
- EC50 [2]: > 10000 nM

Structure (SMILES): CC(C)(O)COc1ccc(CN2C(=S)N(c3ccc(C#N)c(C(F)(F)F)c3)C(=O)C2(C)C)cn1 [Example 10, 4-(3-{[6-(2-Hydroxy-2-methylpropoxy)pyridin-3-yl]methyl}-4,4-dimethyl-5-oxo-2-thioxoimidazolidin-1-yl)-2-(trifluoromethyl)benzonitrile]
- CLhep predicted at 1 µM [3]: 5.83 mL/min/kg
- IC50 [1]: 26.3 nM
- EC50 [2]: > 10000 nM

Structure (SMILES): Cc1nc(C(F)(F)F)ccc1CN1C(=S)N(c2ccc(C#N)c(C(F)(F)F)c2)C(=O)C1(C)C [Example 13, 4-(4,4-Dimethyl-3-{[2-methyl-6-(trifluoromethyl)pyridin-3-yl]methyl}-5-oxo-2-thioxoimidazolidin-1-yl)-2-(trifluoromethyl)benzonitrile]
- CLhep predicted at 1 µM [3]: 3.17 mL/min/kg
- IC50 [1]: 24.7 nM
- EC50 [2]: > 10000 nM
